Results taken from ChEMBL document CHEMBL1135310, “Investigation of the PDZ domain ligand binding site using chemically modified peptides” (Bioorg Med Chem Lett, 2002).
Numbered stars: 1 amine (or outer) side, 2 acyl side, 3 side chain; on linkers, the order of the positions; unused ones are H or OH. Square brackets hold non-standard residues; d marks the D form. Peptide text beside a SMILES is read from it. * marks the point of attachment. X2 = C[C@@H](O)[C@H](O)[C@H](N[*:1])C(=O)[*:2]; X1 = O=C([C@@H](N[*:1])[C@@H](O)CCO)[*:2]; NMeW = CN[C@@H](Cc1c[nH]c2ccccc12)C(=O)O; NMeI = CC[C@H](C)[C@H](NC)C(=O)O; NMeT = CN[C@H](C(=O)O)[C@@H](C)O; NMeQ = CN[C@@H](CCC(N)=O)C(=O)O; NMeV = CN[C@H](C(=O)O)C(C)C; Valol = CC(C)[C@@H](CO)N*

molecular target: T1, Membrane-associated guanylate kinase, WW and PDZ domain-containing protein 3 (Homo sapiens, UniProt Q5TCQ9); assay: Inhibitory concentration for MAGI-3 PDZ2 domain
T1 sequence (Q5TCQ9 whole entry): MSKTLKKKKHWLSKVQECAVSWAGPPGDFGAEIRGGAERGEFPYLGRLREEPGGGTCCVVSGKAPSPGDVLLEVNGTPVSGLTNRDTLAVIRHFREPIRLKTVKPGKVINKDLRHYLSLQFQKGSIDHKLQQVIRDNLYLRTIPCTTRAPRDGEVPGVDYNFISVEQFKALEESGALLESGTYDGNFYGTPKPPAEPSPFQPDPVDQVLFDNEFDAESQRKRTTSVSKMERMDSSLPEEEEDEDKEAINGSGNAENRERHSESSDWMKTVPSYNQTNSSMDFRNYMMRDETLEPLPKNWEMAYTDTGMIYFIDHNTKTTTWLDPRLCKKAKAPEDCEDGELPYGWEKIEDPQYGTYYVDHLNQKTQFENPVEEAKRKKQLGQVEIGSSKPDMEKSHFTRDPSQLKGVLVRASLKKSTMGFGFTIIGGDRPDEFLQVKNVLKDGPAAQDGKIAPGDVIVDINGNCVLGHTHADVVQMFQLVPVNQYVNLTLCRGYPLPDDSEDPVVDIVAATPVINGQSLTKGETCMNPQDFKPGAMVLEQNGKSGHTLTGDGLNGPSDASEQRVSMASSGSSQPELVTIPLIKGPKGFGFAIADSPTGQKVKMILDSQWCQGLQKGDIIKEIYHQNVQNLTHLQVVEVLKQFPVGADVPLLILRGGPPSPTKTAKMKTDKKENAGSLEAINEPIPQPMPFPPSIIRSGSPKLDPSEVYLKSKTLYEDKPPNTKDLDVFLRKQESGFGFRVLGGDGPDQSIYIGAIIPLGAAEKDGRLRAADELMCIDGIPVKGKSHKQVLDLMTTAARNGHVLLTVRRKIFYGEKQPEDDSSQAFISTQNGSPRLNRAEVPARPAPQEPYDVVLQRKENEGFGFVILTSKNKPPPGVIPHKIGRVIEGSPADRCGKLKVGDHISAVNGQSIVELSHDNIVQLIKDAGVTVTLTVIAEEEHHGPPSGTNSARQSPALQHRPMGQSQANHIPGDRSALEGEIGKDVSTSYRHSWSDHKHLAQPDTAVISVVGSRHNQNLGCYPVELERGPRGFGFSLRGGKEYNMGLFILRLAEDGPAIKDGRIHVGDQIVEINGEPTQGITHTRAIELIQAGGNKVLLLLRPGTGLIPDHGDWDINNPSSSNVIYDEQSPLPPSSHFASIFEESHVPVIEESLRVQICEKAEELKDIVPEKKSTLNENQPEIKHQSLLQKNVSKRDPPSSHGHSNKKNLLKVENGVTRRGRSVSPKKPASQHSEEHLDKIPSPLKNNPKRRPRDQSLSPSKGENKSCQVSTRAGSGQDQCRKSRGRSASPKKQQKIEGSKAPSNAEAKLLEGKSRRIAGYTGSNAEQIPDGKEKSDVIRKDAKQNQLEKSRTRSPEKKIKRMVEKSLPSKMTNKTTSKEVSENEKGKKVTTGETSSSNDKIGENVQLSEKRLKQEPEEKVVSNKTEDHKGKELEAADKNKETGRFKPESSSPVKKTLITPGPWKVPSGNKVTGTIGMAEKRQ

IC50 [µM] | Molecule
42.1 | CC[C@H](C)[C@H](NC(=O)[C@H](CCC(N)=O)NC(=O)[C@@H](NC(C)=O)[C@H](C)O)C(=O)N[C@@H](C(=O)N[C@@H](Cc1c[nH]c2ccccc12)C(=O)N[C@H](C(=O)NO)C(C)C)[C@H](C)O
14.8 | CC[C@H](C)[C@H](NC(C)=O)C(=O)N[C@H](C(=O)N[C@@H](Cc1c[nH]c2ccccc12)C(=O)N[C@H](C(=O)O)C(C)C)[C@@H](C)O (Ac-ITWV-OH)
10.6 | CC[C@H](C)[C@H](NC(=O)[C@H](CCC(N)=O)NC(=O)[C@@H](NC(C)=O)[C@@H](C)O)C(=O)N[C@H](C(=O)N(C)[C@@H](Cc1c[nH]c2ccccc12)C(=O)N[C@H](C(=O)O)C(C)C)[C@@H](C)O (Ac-TQIT[NMeW]V-OH)
29 | CC[C@H](C)[C@H](NC(=O)[C@H](CCC(N)=O)NC(=O)[C@@H](NC(C)=O)[C@@H](C)O)C(=O)N(C)[C@H](C(=O)N[C@@H](Cc1c[nH]c2ccccc12)C(=O)N[C@H](C(=O)O)C(C)C)[C@@H](C)O (Ac-TQI[NMeT]WV-OH)
20.4 | CC[C@H](C)[C@@H](C(=O)N[C@H](C(=O)N[C@@H](Cc1c[nH]c2ccccc12)C(=O)N[C@H](C(=O)O)C(C)C)[C@@H](C)O)N(C)C(=O)[C@H](CCC(N)=O)NC(=O)[C@@H](NC(C)=O)[C@@H](C)O (Ac-TQ[NMeI]TWV-OH)
9.8 | CC[C@H](C)[C@H](NC(=O)[C@H](CCC(N)=O)N(C)C(=O)[C@@H](NC(C)=O)[C@@H](C)O)C(=O)N[C@H](C(=O)N[C@@H](Cc1c[nH]c2ccccc12)C(=O)N[C@H](C(=O)O)C(C)C)[C@@H](C)O (Ac-T[NMeQ]ITWV-OH)
34 | CC[C@H](C)[C@H](NC(=O)[C@H](CCC(N)=O)NC(=O)[C@@H](NC(C)=O)[C@H](C)O)C(=O)NC(C(=O)N[C@@H](Cc1cn(C)c2ccccc12)C(=O)N[C@H](C(=O)O)C(C)C)[C@H](C)O (single isomer, unassigned)
5.1 | CC[C@H](C)[C@H](NC(=O)[C@H](CCC(N)=O)NC(=O)[C@@H](NC(C)=O)[C@@H](C)O)C(=O)NC(C(=O)N[C@@H](Cc1c[nH]c2ccccc12)C(=O)N[C@H](C(=O)O)C(C)C)[C@@H](O)CO (single isomer, unassigned)
4.1 | Ac-HTQITWV-OH
4.5 | Ac-QITWV-OH
5.2 | Ac-TQITWV-OH
14.4 | H-PFDEDQHTQIAKV-OH [PFDEDQHTQIAKV]
0.74 | H-PFDEDQHTQITWV-OH

molecular target: T1, Membrane-associated guanylate kinase, WW and PDZ domain-containing protein 3; assay: Inhibitory concentration for MAGI-3 PDZ2 domain; ND denotes not detected

IC50 | Molecule
Not detected | CC[C@H](C)[C@H](NC(=O)[C@H](CCC(N)=O)NC(=O)[C@@H](NC(C)=O)[C@@H](C)O)C(=O)N[C@H](C(=O)N[C@@H](Cc1c[nH]c2ccccc12)C(=O)N[C@H](CO)C(C)C)[C@@H](C)O (Ac-TQITW-Valol)
Not detected | CC[C@H](C)[C@H](NC(=O)[C@H](CCC(N)=O)NC(=O)[C@@H](NC(C)=O)[C@@H](C)O)C(=O)N[C@H](C(=O)N[C@@H](Cc1c[nH]c2ccccc12)C(=O)N(C)[C@H](C(=O)O)C(C)C)[C@@H](C)O (Ac-TQITW[NMeV]-OH)
Not detected | CC[C@H](C)[C@H](NC(=O)[C@H](CCC(N)=O)NC(=O)[C@@H](NC(C)=O)[C@@H](C)O)C(=O)N[C@H](C(=O)N[C@@H](Cc1c[nH]c2ccccc12)C(=O)N[C@H](C(=O)O)C(C)C)[C@@H](O)CCO (Ac-TQI[X1]WV-OH)
Not detected | CC[C@H](C)[C@H](NC(=O)[C@H](CCC(N)=O)NC(=O)[C@@H](NC(C)=O)[C@@H](C)O)C(=O)N[C@H](C(=O)N[C@@H](Cc1c[nH]c2ccccc12)C(=O)N[C@H](C(=O)O)C(C)C)[C@@H](O)[C@@H](C)O (Ac-TQI[X2]WV-OH)
Not detected | CC[C@H](C)[C@H](NC(=O)[C@H](CCC(N)=O)NC(=O)[C@@H](NC(C)=O)[C@H](C)O)C(=O)NC(C(=O)N[C@@H](Cc1c[nH]c2ccccc12)C(=O)N[C@H](C(=O)O)C(C)C)[C@@H](O)C(C)(C)O (single isomer, unassigned)
Not detected | CCC(O)[C@H](O)C(NC(=O)[C@@H](NC(=O)[C@H](CCC(N)=O)NC(=O)[C@@H](NC(C)=O)[C@@H](C)O)[C@@H](C)CC)C(=O)N[C@@H](Cc1c[nH]c2ccccc12)C(=O)N[C@H](C(=O)O)C(C)C (single isomer, unassigned)

molecular target: T1, Membrane-associated guanylate kinase, WW and PDZ domain-containing protein 3; assay: Dissociation constant for binding to MAGI-3 PDZ2 domain

Kd [µM] | Molecule
1 | H-PFDEDQHTQITKV-OH
0.02 | H-PFDEDQHTQITWV-OH
